Experimental data as given in patent US20040058310A1 (priority 2002, published 2004).
Read-outs that look alike come from different tables or passages of the source.

Legend:
[1] = target: nicotinic acetylcholine receptors; conditions: cited from earlier work
PMN nicotinic receptors [2] = assay: saturation of specific [125I]-α-bungarotoxin binding to smokers' polymorphonuclear leukocytes; design: species or system human
Method: FIG. 1: Saturation of specific [^3H]-epibatidine (A) and [^125I]-α-bungarotoxin (B) binding to human polymorphonuclear cells. Insets, Scatchard analyses of specific binding of [^3H]-epibatidine and [^125I]-α-bungarotoxin (1 pM to 10 nM). […] Data are the mean± standard error of three experiments.
Saturation studies were conducted with increasing concentrations of [^3H]-epibatidine (1 pM-10 nM) and [^125I]-α-bungarotoxin (1 pM-10 nM). […] Following the binding reactions, bound and free ligands were separated by rapid vacuum filtration through Whatman GF/B fiberglass filters (Polylabo) treated with ice-cold buffer (KH2PO4 5 mM, Na2HPO4 20 mM, NaCl 100 mM, pH 7.4) containing 0.1% milk. The filters were rinsed three times with 5 ml of the same ice-cold buffer and placed in vials with 4 ml of Picofluor 30 scintillation liquid (Packard Instrument). The radioactivity was determined by liquid scintillation counting.
Smokers' polymorphonuclear leukocytes (n=3) were used to investigate saturation experiments.

PMN nicotinic receptors [3] = assay: [125I]-α-bungarotoxin binding sites in PMN of smokers and non-smokers; design: species or system human
Method: (§1) FIG. 2: [^3H]-epibatidine (A) and [^125I]-α-bungarotoxin (B) binding sites in human polymorphonuclear cells isolated from smokers (n=90 and 60, respectively) and non-smokers (n=50). Binding levels were measured at 10 nM of [^3H]-epibatidine and [^125I]-α-bungarotoxin. Nonspecific binding was determined in the presence of 1 μM or 100 μM of nicotine, respectively.
(§2) Human polymorphonuclear leukocytes were isolated according to a slightly modified version of the method described by Cabanis (Cabanis, Gressier et al. 1994). Briefly, 20 ml of fresh heparinized blood were diluted with an equal amount of phosphate-buffered saline (PBS) 0.1 M, pH 7.4, and placed above 10 ml of Histopaque-1077. After centrifugation at 400 g for 30 min, the pellet was resuspended in 40 ml of cold isotonic ammonium chloride solution (NH4Cl 0.15 M, NaHCO3 10 mM). Following 20 min at 4° C., the cell suspension was centrifuged at 160 g for 10 minutes, and the white pellets were washed twice in 10 ml of Hank's buffer. The protein content was measured using the method developed by Lowry et al. (Lowry et al. 1951).
Binding assays were performed on intact purified PMN. Cellular protein (100 μg) was incubated with 10 nM [^3H]-epibatidine for 30 min. or with [^125I]-α-bungarotoxin for 60 min at 25° C. in a volume of 100 μl. […]

PMN nicotinic receptors [4] = assay: [3H]-epibatidine binding sites in PMN of smokers and non-smokers; design: species or system human
Method: as §1, §2
(§3) Binding assays were performed on intact purified PMN. Cellular protein (100 μg) was incubated with 10 nM [^3H]-epibatidine for 30 min. or with [^125I]-α-bungarotoxin for 60 min at 25° C. in a volume of 100 μl. Specific binding was defined as the difference between total binding and binding in the presence of 1 μM or 100 μM nicotine, performed in triplicate.
Nicotinic receptor binding sites in PMN were investigated from 90 smokers and 50 non-smokers. Participating smokers were recruited from the Centre de Tabacologie, Hôpital A. Chenevier, Créteil.

melanoma X63-Ag8 cells = assay: total epibatidine-binding sites in X63-Ag8 cells; conditions: mean and standard error of three independent experiments
Excerpt: (§4) The presence of nAChRs in B lymphocytes was further confirmed by studying the [^3H]-epibatidine and [^125I]-α-bungarotoxin binding. Epibatidine is a potent agonist of heteromeric nAChRs, while -α-bungarotoxin (α-Bgt) binds to both muscle-type nAChRs and homomeric neuronal-type of nAChRs. In addition, epibatidine penetrates inside the cell and binds both surface and intracellular receptors, while α-Bgt, when tested at ice-cold temperature, binds only surface-expressed receptors. Normal B lymphocytes and […] X63-Ag8 cells contained almost equal amounts of total epibatidine-binding sites per cell (12,220±3,200 and 10,170±1,100, respectively, means and standard error of three independent experiments).

[5] = in vivo; cited from earlier work
[6] = hot plate assay; cited from earlier work
Normal B lymphocytes = assay: total epibatidine-binding sites in B lymphocytes; conditions: mean and standard error of three independent experiments
Excerpt: as §4

PMN nicotinic receptors [7] = assay: saturation of specific [3H]-epibatidine binding to smokers' polymorphonuclear leukocytes; design: species or system human
Method: Insets, Scatchard analyses of specific binding of [^3H]-epibatidine and [^125I]-α-bungarotoxin (1 pM to 10 nM). Nonspecific binding was determined in the presence of 1 μM or 100 μM of nicotine respectively. Data are the mean± standard error of three experiments.
as §2, §3
Saturation studies were conducted with increasing concentrations of [^3H]-epibatidine (1 pM-10 nM) and [^125I]-α-bungarotoxin (1 pM-10 nM). Specific binding was defined as the difference between total binding and binding in the presence of 1 μM or 100 μM nicotine, respectively, performed in triplicate. Following the binding reactions, bound and free ligands were separated by rapid vacuum filtration through Whatman GF/B fiberglass filters (Polylabo) treated with ice-cold buffer (KH2PO4 5 mM, Na2HPO4 20 mM, NaCl 100 mM, pH 7.4) containing 0.1% milk. The filters were rinsed three times with 5 ml of the same ice-cold buffer and placed in vials with 4 ml of Picofluor 30 scintillation liquid (Packard Instrument). The radioactivity was determined by liquid scintillation counting.
Binding experiments were investigated in smokers' polymorphonuclear leukocyte cells in presence of various concentrations of [^3H]-epibatidine ranging from 0.1 nM to 25 nM.
For each experiment, the mean values of RCR or percentages were compared in a one-way analysis of variance and a Dunneft test. EC50 was calculated by non-linear regression fit of effect-concentration (C) curve to the equation: E=(Emax×C)/(C+EC50), where Emax and EC50 are the maximal efficiency and the concentration producing 50% effect respectively, using commercially available software (Micropharm®) (Urien 1995). Data from binding experiments were analysed by means of non-linear regression with commercially available software (Micropharm®) (Urien 1995).

opioid receptor = conditions: cited from earlier work
[8] = tested on: human polymorphonuclear cells
[9] = tested on: human polymorphonuclear cells; remark: listed apart in the source

Method for α3, α4 and β2 subunits: Total RNA was isolated from smokers and non-smokers (TRIZOL, Gibco). First strand cDNA synthesis reactions were performed after annealing 5 μg of total RNA with 100 ng random hexamers (70° C. for 10 minutes) by incubation at 42° C. for 50 minutes. Polymerase chain reactions were carried out in a 20 μl reaction volume containing 1 μl cDNA product, 250 ng of both forward and reverse primers (Table 1), 5 units of Taq polymerase then cycled 30 times at 95° C. for 1 minute, 55° C. for 1 minute and 72° C. for 2 minutes. The amplified DNA products were analysed by agarose gel electrophoresis and stained with ethidium bromide. The PCR products were transferred from the gel to Hybond-N^+ membranes (Amersham) and hybridised with a ^32P-end-labelled oligoprobe (Table 1). Southern blot hybridizations were performed overnight at 42° C. in hybridisation buffer (5×SSC, 1× Denhardt's, 20 mM sodium phosphate buffer pH 6.5, 0.1% SDS, 100 μg/ml tRNA). The Southern blots were washed for 1 hour at room temperature in 2×SSC and 1% SDS, then exposed to X-ray film (Kodak Biomax) overnight with an intensifying screen.

For `Cc1cc([C@H]2C[C@@H]3CC[C@H]2N3)on1` [epiboxidine], the Ki ([1]; nAChR) is listed as 600 pM.

For `CNC1(C)C2CCC(C2)C1(C)C` (stereo not shown) [mecamylamine], the “blockade of epibatidine binding to nicotinic acetylcholine receptors” value ([1]; noncompetitive nicotinic antagonist) is given as “can be blocked”.

In the case of [^125I]-α-bungarotoxin, the Bmax (PMN nicotinic receptors [2]) is reported as 189.46±126.27 fmol/mg proteins, the “nH (Scatchard plot linearity)” value (PMN nicotinic receptors [2]) is reported as 1.08±0.06 and the Kd (PMN nicotinic receptors [2]; read-out: apparent Kd) is reported as 2.77 ± 1.54 nM. The “PMN tested that demonstrated binding sites” value (PMN nicotinic receptors [3]) was “Approximately 30%” and the “binding sites in smokers compared with non-smokers” value (PMN nicotinic receptors [3]) was “No difference”.

In the case of `Clc1ccc(C2CC3CCC2N3)cn1` (stereo not drawn) [epibatidine, exo-2(6-chloro-3-pyridyl)-7-azabicyclo[2.2.1]-heptane], the Ki ([1]; nAChR, restated in pM) is given as about 55 pM, the Ki ([1]; nAChR) is given as 43 to 55 pM and the “binding sites in non-smokers' PMN” value (PMN nicotinic receptors [4]; 50 non-smokers, listed as [^3H]-epibatidine) is given as “not present and None”. The “smokers with detected binding sites” value (PMN nicotinic receptors [4]; 90 smokers) was 82%, the “total number of binding sites in smokers” value (PMN nicotinic receptors [4]; PMN of smokers, 10 nM radioligand) was 40.65±4.89 fmol/mg protein and the “total epibatidine-binding sites per cell” value (melanoma X63-Ag8 cells) was 10,170±1,100 sites per cell. For the same molecule, the “eliciting the Straub-tail response compared with morphine” value [5] was “approximately 500 fold that of morphine”, the “analgesic effect compared with morphine” value [6] was “approximately 200 times higher than morphine” and the “total epibatidine-binding sites per cell” value (Normal B lymphocytes) was 12,220±3,200 sites per cell. For the same molecule, the Hill coefficient (PMN nicotinic receptors [7]; biphasic Scatchard plot) was 0.76, the “Bmax1, high affinity site” value (PMN nicotinic receptors [7]; first site) was 46.97±5.64 fmol/mg protein and the “share of the total binding sites, high affinity site” value (PMN nicotinic receptors [7]; first site) was 86.86%. The Kd (PMN nicotinic receptors [7]; first site, read-out: Kd2, high affinity site) was 2.11 ± 0.43 nM, the “Bmax1, very high affinity site” value (PMN nicotinic receptors [7]; second site) was 7.73±0.64 fmol/mg protein and the “share of the total binding sites, very high affinity site” value (PMN nicotinic receptors [7]; second site) was 14.14%. For the same molecule, the Kd (PMN nicotinic receptors [7]; second site, read-out: Kd1, very high affinity site) was 0.0563 ± 0.0278 nM and the “affinity for the opioid receptor” value (opioid receptor) was 1/8000.

In the case of `CN1CCCC1c1cccnc1` (stereo not shown) [nicotine], the Ki [1] is given as 1010 pM, the “nAChR subunit expression after ex-vivo nicotine exposure” value (α3, α4 and β2 subunits) is given as “induced expression of α3, α4 and β2 subunits” and the “Bmax of [3H]-epibatidine binding sites after nicotine” value [8] is given as 34.66±6.25 fmol/mg protein. For the same molecule, the “formation of [3H]-epibatidine binding sites” value [8] was “induced the formation”, the “increase of the number of [3H]-epibatidine binding sites” value [8] was 2.67 fold and the “number of [3H]-epibatidine binding sites after nicotine” value [8] was 29.19±10.28 fmol/mg protein. The “change in the binding of [125I]-α-bungarotoxin to PMN” value [9] was “no change”.
